Test results from patent US10945685B2, “System and method for normalizing standardized uptake values in brain positron emission tomography (PET) images” (New York University, priority 2018, dated 2021).

Columns and labels:
[1] = system: tau; assay: Example II: global and regional tau binding by SUVR, PERSI and SUVP, 42 NL and 22 AD; type: in vivo, human; conditions: with SUVR, 64 subjects
Source text: Example II, as discussed below, provides an exemplary embodiment comparing tau PET uptake quantification methods based on a 18F-AV-1451 tracer. Quantitative measurement of tau bindings from PET tracers (such as AV1451) is crucial in the PET-based study of tauopathies (such as Alzheimer's). The standardized uptake value ratio (SUVR) method has been challenged by the off-target binding in reference region. An unbiased tau binding quantification may be achieved via several different methods, including the Parametric Estimate of Reference Signal Intensity (PERSI) method by Avid Radiopharmaceutical and standardized uptake value peak-alignment (SUVP) method. In Example II, we compared the sensitivity of SUVR, PERSI and SUVP methods on the same PET dataset, in both global and local regions.
Using SUVR, PERSI, and SUVP, we evaluated the global and regional tau binding of 18F-AV-1451 on 64 subjects, with 42 cognitively normal (NL) and 22 Alzheimer's disease (AD), and compared the group differences of tau binding under the three different methods. Cerebral cortex was used as ROI for global binding test. The average SUVP value in ROIs is computed by averaging all positive SUVP values (SUVP>0) within the ROI, and positive binding percentage (PBP) for SUVP is defined as the ratio of voxel number with SUVP>1.5 over the total voxel number within the ROI.

[2] = molecular target: T1, Monoamine oxidase A (MAO-A) (Homo sapiens, UniProt P21397); conditions: recent data, background; cited from earlier work
T1 sequence (P21397 1-527): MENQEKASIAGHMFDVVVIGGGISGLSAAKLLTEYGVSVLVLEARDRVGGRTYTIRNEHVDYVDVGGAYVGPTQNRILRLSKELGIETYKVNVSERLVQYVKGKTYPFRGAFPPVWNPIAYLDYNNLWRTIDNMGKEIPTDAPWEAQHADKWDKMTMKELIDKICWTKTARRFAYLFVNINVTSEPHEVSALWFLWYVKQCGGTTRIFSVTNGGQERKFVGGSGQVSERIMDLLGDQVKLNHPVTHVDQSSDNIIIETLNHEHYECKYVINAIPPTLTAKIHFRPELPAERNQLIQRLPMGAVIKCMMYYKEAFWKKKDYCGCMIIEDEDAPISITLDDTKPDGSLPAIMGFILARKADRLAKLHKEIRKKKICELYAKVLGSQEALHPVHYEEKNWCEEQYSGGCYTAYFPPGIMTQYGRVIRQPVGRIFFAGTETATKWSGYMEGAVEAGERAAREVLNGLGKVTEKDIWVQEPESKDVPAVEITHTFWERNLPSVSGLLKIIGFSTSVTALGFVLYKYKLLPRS

[3] = molecular target: T2, Monoamine oxidase B (MAO-B) (Homo sapiens, UniProt P27338); assay: MAO-B off-target binding of tau PET tracer; type: in vivo; conditions: SUVP data, Example I
T2 construct: from tissue; host or cells: brain of living AD patients and normal control subjects (in vivo PET)
T2 sequence (P27338 1-520): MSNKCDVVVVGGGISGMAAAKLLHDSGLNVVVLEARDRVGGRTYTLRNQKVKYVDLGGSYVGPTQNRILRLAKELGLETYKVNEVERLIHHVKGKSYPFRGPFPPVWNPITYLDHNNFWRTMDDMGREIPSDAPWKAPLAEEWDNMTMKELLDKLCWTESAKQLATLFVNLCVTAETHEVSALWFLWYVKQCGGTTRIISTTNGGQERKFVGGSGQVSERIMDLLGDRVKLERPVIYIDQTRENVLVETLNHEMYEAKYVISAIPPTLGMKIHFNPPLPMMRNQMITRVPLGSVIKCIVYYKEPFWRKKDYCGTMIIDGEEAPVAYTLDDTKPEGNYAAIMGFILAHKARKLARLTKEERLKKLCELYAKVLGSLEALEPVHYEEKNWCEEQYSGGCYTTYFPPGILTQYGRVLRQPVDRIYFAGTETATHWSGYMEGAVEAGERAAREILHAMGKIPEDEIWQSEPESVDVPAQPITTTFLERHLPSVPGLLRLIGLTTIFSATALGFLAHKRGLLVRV

[4] = molecular target: T2, Monoamine oxidase B (MAO-B); conditions: recent data, background; cited from earlier work

Row | tau binding, AD subjects versus cognitively normal NL subjects [1] | SMILES | MAO-A binding [2] | MAO-B off-target binding [3] | MAO-B binding [4]
1 | significantly higher tau binding | [18F]c1ccc(-c2ccc3c(c2)[nH]c2ccncc23)cn1 [AV-1451] | some Monoamine oxidase A (MAO-A) binding |  | 
2 |  | CNc1ccc(-c2ccc3cc(OC[C@H](O)CF)ccc3n2)cn1 [THK5351] |  | MAO-B off-target binding in THK5351 was observed | widespread Monoamine oxidase B (MAO-B) binding
